# According to patent US20150105252A1, “SUBSTITUTED PYRAZOLES AS HERBICIDES” (E I DU PONT DE NEMOURS AND COMPANY, priority 2013, published 2015):
# How the values were obtained:
# Test in all cases: Test C postemergence
# waterhemp = format: in vivo, Amaranthus rudis
# Method in brief: (§1)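 Visual rating, 0–100 scale (0 no effect, 100 complete control), vs untreated controls after 13–15 d greenhouse. Pre: seeds in loam/sand, treated at sowing. Post: plants in peat-based mix, 1- to 4-leaf (2–18 cm). Solvent + surfactant formulation, non-phytotoxic.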
# soybean = format: in vivo, Glycine max
# From the text: (§2) Seeds of plant species selected from blackgrass (Alopecurus myosuroides), ryegrass, Italian (Italian ryegrass, Lolium multiflorum), wheat (winter wheat, Triticum aestivum), galium (catchweed bedstraw, Galium aparine), corn (Zea mays), crabgrass, large (large crabgrass, Digitaria sanguinalis), foxtail, giant (giant foxtail, Setaria faberii), johnsongrass (Sorghum halepense), lambsquarters (Chenopodium album), morningglory (Ipomoea coccinea), nutsedge, yellow (yellow nutsedge, Cyperus esculentus), pigweed (redroot pigweed, Amaranthus retroflexus), ragweed (common ragweed, Ambrosia elation), soybean (Glycine max), barnyardgrass (Echinochloa crus-galli), oilseed rape (Brassica napus), waterhemp (common waterhemp, Amaranthus rudis), oat, wild (wild oat, Avena fatua), kochia (Kochia scoparia), Surinam grass (Brachiaria decumbens), foxtail, green (green foxtail, Setaria viridis), goosegrass (Eleusine indica), bromegrass, downy (downy bromegrass, Bromus tectorum), nightshade (eastern black nightshade, Solanum ptycanthum), cocklebur (common cocklebur, Xanthium strumarium), cupgrass, woolly (woolly cupgrass, Eriochloa villosa), bermudagrass (Cynodon dactylon), sunflower, (common oilseed sunflower, Helianthus annuus), Russian thistle (Salsola kali), and velvetleaf (Abutilon theophrasti) were planted into a blend of loam soil and sand and treated preemergence with test chemicals formulated in a non-phytotoxic solvent mixture which included a surfactant.
# (§3) At the same time, plants selected from these crop and weed species and also chickweed (common chickweed, Stellaria media), canarygrass (littleseed canarygrass, Phalaris minor), and deadnettle (henbit deadnettle, Lamium amplexicaule), were planted in pots containing Redi-Earth® planting medium (Scotts Company, 14111 Scottslawn Road, Marysville, Ohio 43041) comprising spaghnum peat moss, vermiculite, wetting agent and starter nutrients and treated with postemergence applications of test chemicals formulated in the same manner. Plants ranged in height from 2 to 18 cm (1- to 4-leaf stage) for postemergence treatments. Treated plants and controls were maintained in a greenhouse for 13 to 15 days, after which time all species were compared to controls and visually evaluated. Plant response ratings, summarized in Table C, are based on a scale of 0 to 100 where 0 is no effect and 100 is complete control. A dash (-) response means no test result.
# corn = format: in vivo, Zea mays
# From the text: as §2, §3
# ragweed = format: in vivo, Ambrosia elation
# Method in brief: as §1
# foxtail, giant = format: in vivo, Setaria faberii
# Method in brief: as §1
# wheat = format: in vivo, Triticum aestivum
# Method in brief: as §1
# nutsedge, yellow = format: in vivo, Cyperus esculentus
# From the text: as §2, §3
# oilseed rape = format: in vivo, Brassica napus
# Method in brief: as §1
# ryegrass, Italian = format: in vivo, Lolium multiflorum
# Method in brief: as §1
# barnyardgrass = format: in vivo, Echinochloa crus-galli
# From the text: as §2, §3
# pigweed = format: in vivo, Amaranthus retroflexus
# From the text: as §2, §3
# galium = format: in vivo, Galium aparine
# Method in brief: as §1
# kochia = format: in vivo, Kochia scoparia
# Method in brief: as §1
# oat, wild = format: in vivo, Avena fatua
# From the text: as §2, §3
# lambsquarters = format: in vivo, Chenopodium album
# Method in brief: as §1
# [1] = Postemergence, 31 g ai/ha, visually evaluated after 13 to 15 days
# [2] = postemergence, 62 g ai/ha, scale 0 to 100
# [3] = postemergence, 250 g ai/ha, scale 0 to 100 (0 no effect, 100 complete control)
# [4] = postemergence, 125 g ai/ha, scale 0 to 100, 0 no effect, 100 complete control
compound,measurement,setting,value
CCc1cc(C(=O)NC2CC2)nn1Cc1ccnc(OC(F)F)c1 [Compound 98],"Plant response rating (scale of 0 to 100 where 0 is no effect and 100 is complete control), Waterhemp",waterhemp; [1],10
same,Waterhemp plant response rating,waterhemp; [2],45
same,"Plant response rating, Waterhemp",waterhemp; [3],90
same,"Plant response rating, Waterhemp",waterhemp; [4],85
same,"Plant response rating (scale of 0 to 100 where 0 is no effect and 100 is complete control), Soybean",soybean; [1],70
same,Soybean plant response rating,soybean; [2],70
same,"Plant response rating, Soybean",soybean; [3],85
same,"Plant response rating, Soybean",soybean; [4],85
same,"Plant response rating (scale of 0 to 100 where 0 is no effect and 100 is complete control), Corn",corn; [1],5
same,Corn plant response rating,corn; [2],5
same,"Plant response rating, Corn",corn; [3],10
same,"Plant response rating, Corn",corn; [4],5
same,"Plant response rating (scale of 0 to 100 where 0 is no effect and 100 is complete control), Ragweed",ragweed; [1],15
same,Ragweed plant response rating,ragweed; [2],35
same,"Plant response rating, Ragweed",ragweed; [3],75
same,"Plant response rating, Ragweed",ragweed; [4],75
same,"Plant response rating (scale of 0 to 100 where 0 is no effect and 100 is complete control), Foxtail, Giant","foxtail, giant; [1]",45
same,"Foxtail, Giant plant response rating","foxtail, giant; [2]",50
same,"Plant response rating, Foxtail, Giant","foxtail, giant; [3]",85
same,"Plant response rating, Foxtail, Giant","foxtail, giant; [4]",55
same,"Plant response rating (scale of 0 to 100 where 0 is no effect and 100 is complete control), Wheat",wheat; [1],5
same,Wheat plant response rating,wheat; [2],5
same,"Plant response rating, Wheat",wheat; [3],20
same,"Plant response rating, Wheat",wheat; [4],5
same,"Plant response rating (scale of 0 to 100 where 0 is no effect and 100 is complete control), Nutsedge, Yellow","nutsedge, yellow; [1]",0
same,"Nutsedge, Yellow plant response rating","nutsedge, yellow; [2]",5
same,"Plant response rating, Nutsedge, Yellow","nutsedge, yellow; [3]",5
same,"Plant response rating, Nutsedge, Yellow","nutsedge, yellow; [4]",5
same,"Plant response rating (scale of 0 to 100 where 0 is no effect and 100 is complete control), Oilseed Rape",oilseed rape; [1],20
same,Oilseed Rape plant response rating,oilseed rape; [2],25
same,"Plant response rating, Oilseed Rape",oilseed rape; [3],30
same,"Plant response rating, Oilseed Rape",oilseed rape; [4],30
same,"Plant response rating (scale of 0 to 100 where 0 is no effect and 100 is complete control), Ryegrass, Italian","ryegrass, Italian; [1]",5
same,"Ryegrass, Italian plant response rating","ryegrass, Italian; [2]",10
same,"Plant response rating, Ryegrass, Italian","ryegrass, Italian; [3]",10
same,"Plant response rating, Ryegrass, Italian","ryegrass, Italian; [4]",10
same,"Plant response rating (scale of 0 to 100 where 0 is no effect and 100 is complete control), Barnyardgrass",barnyardgrass; [1],0
same,Barnyardgrass plant response rating,barnyardgrass; [2],0
same,"Plant response rating, Barnyardgrass",barnyardgrass; [3],35
same,"Plant response rating, Barnyardgrass",barnyardgrass; [4],5
same,"Plant response rating (scale of 0 to 100 where 0 is no effect and 100 is complete control), Pigweed",pigweed; [1],10
same,Pigweed plant response rating,pigweed; [2],10
same,"Plant response rating, Pigweed",pigweed; [3],90
same,"Plant response rating, Pigweed",pigweed; [4],30
same,"Plant response rating (scale of 0 to 100 where 0 is no effect and 100 is complete control), Galium",galium; [1],50
same,Galium plant response rating,galium; [2],55
same,"Plant response rating, Galium",galium; [3],90
same,"Plant response rating, Galium",galium; [4],65
same,"Plant response rating (scale of 0 to 100 where 0 is no effect and 100 is complete control), Kochia",kochia; [1],40
same,Kochia plant response rating,kochia; [2],75
same,"Plant response rating, Kochia",kochia; [3],85
same,"Plant response rating, Kochia",kochia; [4],85
same,"Plant response rating (scale of 0 to 100 where 0 is no effect and 100 is complete control), Oat, Wild","oat, wild; [1]",5
same,"Oat, Wild plant response rating","oat, wild; [2]",5
same,"Plant response rating, Oat, Wild","oat, wild; [3]",25
same,"Plant response rating, Oat, Wild","oat, wild; [4]",10
same,"Plant response rating (scale of 0 to 100 where 0 is no effect and 100 is complete control), Lambsquarters",lambsquarters; [1],60
same,Lambsquarters plant response rating,lambsquarters; [2],70
same,"Plant response rating, Lambsquarters",lambsquarters; [3],95
same,"Plant response rating, Lambsquarters",lambsquarters; [4],90
